Measurements reported in patent publication US20050101595A1, “N-containing cycloalkyl-substituted amino-thiazole derivatives and pharmaceutical compositions for inhibiting cell proliferation and methods for their use” (PFIZER INC., priority 2003, published 2005).
pIC50, pKi: −log10 of the molar value. Counter-ions that a name gives are not always drawn. Like-named read-outs stand apart in the source and are kept apart here.

Experiments:
CDK2/Cyclin A = CDK2/Cyclin A (Homo sapiens, UniProt P24941); assay: Inhibition of CDK2/Cyclin A Retinoblastoma Kinase Activity; assay type: biochemical; conditions: for pKi: apparent Ki, CDK2/proteolyzed cyclin A, Rb fragment substrate, 25 μM ATP
In short: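 Human CDK2, baculovirus/insect-cell expressed, complexed with proteolyzed cyclin A (10 nM or 19 nM CDK2) phosphorylates an Rb fragment with 25 μM [32P/33P]ATP at pH 7.4, 30° C, for 60 or 75 minutes under initial-rate conditions. Filter-captured radioactivity is read by phosphorimager; apparent Ki from competitive-inhibition fits.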

[1] = molecular target: human CDK4 and genetically truncated (1-264) cyclin D3 (Homo sapiens, UniProt P11802); assay: Inhibition of CDK4/Cyclin D Retinoblastoma Kinase Activity; assay type: biochemical; conditions: for pKi: apparent Ki, CDK4/truncated cyclin D3, Rb fragment substrate, 25 μM ATP
Sequence of human CDK4 and genetically truncated (1-264) cyclin D3 (P11802 whole entry, the tested form may be a part): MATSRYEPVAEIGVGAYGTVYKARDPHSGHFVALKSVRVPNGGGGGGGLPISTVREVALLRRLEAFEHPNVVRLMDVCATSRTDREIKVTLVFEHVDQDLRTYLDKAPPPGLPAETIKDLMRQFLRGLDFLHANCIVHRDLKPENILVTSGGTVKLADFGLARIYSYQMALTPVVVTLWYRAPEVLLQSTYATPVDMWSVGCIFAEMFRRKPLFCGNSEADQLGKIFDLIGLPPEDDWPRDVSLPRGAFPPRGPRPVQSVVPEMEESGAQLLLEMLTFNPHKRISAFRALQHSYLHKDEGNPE
Sequence of human CDK4 and genetically truncated (1-264) cyclin D3 (P30281 1-264 partner): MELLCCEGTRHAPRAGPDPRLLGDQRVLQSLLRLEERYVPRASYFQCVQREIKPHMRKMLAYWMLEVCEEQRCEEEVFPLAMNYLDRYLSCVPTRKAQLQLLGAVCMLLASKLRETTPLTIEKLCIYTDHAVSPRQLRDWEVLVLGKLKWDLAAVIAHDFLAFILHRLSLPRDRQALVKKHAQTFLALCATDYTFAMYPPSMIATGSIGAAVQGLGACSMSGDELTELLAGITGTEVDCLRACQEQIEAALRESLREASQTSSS
In short: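 Read-out: 32P/33P incorporation into Rb fragment (386-928) captured on nitrocellulose, phosphorimager. Enzyme 5 nM CDK4/cyclin D3(1-264) from insect cells; ATP 25 μM, pH 7.4, 30 °C, 20 min (60 min for tight binders). Ki from competitive fits.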

HCT-116 cell line = assay: Inhibition of cell growth, tetrazolium salt (MTT) assay; assay type: cell-based; conditions: for pIC50: Homo sapiens, HCT-116, 120 h, MTT, three to five days, read-out: HCT-116 IC50; for HCT-116 % Inhibition at 0.25 μM: 0.25 μM compound
In short: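 HCT-116 cells in McCoy's 5A medium received compound 4 h after plating (0.5% v/v DMSO) and were incubated three to five days at 37° C, 5% CO2. MTT (0.2 mg/mL final) then added for 4 h; DMSO-solubilized formazan read at 540 nm against 0.5% DMSO-treated controls.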

[2] = 0.1 μM compound, HCT-116, Table 3

pKi (CDK2/Cyclin A) | pKi [1] | pIC50 (HCT-116 cell line; first HCT-116 column (c4)) | pIC50 (HCT-116 cell line; second HCT-116 column (c5)) | Compound | other results
9.20 | 8.72 | 7.15 | 6.77 | Cc1cccc(CNCCS(=O)(=O)N2CCC(Nc3nc(N)c(C(=O)c4c(F)cccc4F)s3)CC2)c1 [Example K41, (4-Amino-2-{1-[2-(3-methyl-benzylamino)-ethanesulfonyl]-piperidin-4-ylamino}-thiazol-5-yl)-(2,6-difluoro-phenyl)-methanone] | –
8.82 | 9.03 | 7.10 | 6.52 | CN1CCC(c2ccc(S(=O)(=O)N3CCC(Nc4nc(N)c(C(=O)c5c(F)cccc5F)s4)CC3)cc2)C1 (stereo not shown) [Example F25, 1-(4-Amino-2-[1-[4-(1-methyl-pyrrolidin-3-yl)-benzenesulfonyl]-piperidin-4-ylamino]-thiazol-5-yl}-1-(2,6-difluoro-phenyl)-methanone Dihydrochloride] | –
9.00 | 8.72 | 7.30 | 6.82 | CC[C@H](NCCS(=O)(=O)N1CCC(Nc2nc(N)c(C(=O)c3c(F)cccc3F)s2)CC1)c1ccccc1 [Example K42, (4-Amino-2-{1-[2-(1S-phenyl-propylamino)-ethanesulfonyl]-piperidin-4-ylamino}-thiazol-5-yl)-(2,6-difluoro-phenyl)-methanone] | –
– | – | – | – | Cc1cccc(S(=O)(=O)N2CCC(Nc3nc(N)c(C(=O)c4c(F)cccc4F)s3)CC2)c1 [Example P37] | CDK2 % Inhibition at 0.03 μM (CDK2/Cyclin A; 0.03 μM compound, Table 3): 58%; CDK4 % Inhibition at 0.03 μM ([1]; 0.03 μM compound, Table 3): 65%; HCT-116 % Inhibition at 0.1 μM (HCT-116 cell line; [2]): 0%; HCT-116 % Inhibition at 0.25 μM (HCT-116 cell line; HCT-116, Table 3): 27%
– | – | – | – | Nc1nc(NC2CCN(C(=O)C3(c4ccccc4)CC3)CC2)sc1C(=O)c1c(F)cccc1F [Example R90] | CDK2 % Inhibition at 0.03 μM (CDK2/Cyclin A; at 0.03 μM): −2%; CDK4 % Inhibition at 0.03 μM ([1]; at 0.03 μM): −6%; HCT-116 % Inhibition at 0.1 μM (HCT-116 cell line; HCT-116 cells, at 0.1 μM): 0%; HCT-116 5 Inhibition at 0.25 μM (HCT-116 cell line; HCT-116 cells): 19
– | – | – | – | Nc1nc(NC2CCN(C(=O)c3c(F)cccc3F)CC2)sc1C(=O)c1c(F)cccc1F [Example R105] | CDK2 % Inhibition at 0.03 μM (CDK2/Cyclin A; at 0.03 μM): 8%; CDK4 % Inhibition at 0.03 μM ([1]; at 0.03 μM): 9%; HCT-116 % Inhibition at 0.1 μM (HCT-116 cell line; HCT-116 cells, at 0.1 μM): 0%; HCT-116 5 Inhibition at 0.25 μM (HCT-116 cell line; HCT-116 cells): 44
– | – | – | – | Nc1nc(NC2CCN(S(=O)(=O)c3ccc(F)cc3F)CC2)sc1C(=O)c1c(F)cccc1F [Example P34] | CDK2 % Inhibition at 0.03 μM (CDK2/Cyclin A; 0.03 μM compound, Table 3): 60%; CDK4 % Inhibition at 0.03 μM ([1]; 0.03 μM compound, Table 3): 58%; HCT-116 % Inhibition at 0.1 μM (HCT-116 cell line; [2]): 8%; HCT-116 % Inhibition at 0.25 μM (HCT-116 cell line; HCT-116, Table 3): 23%
– | – | – | – | Nc1nc(NC2CCN(C(=O)Nc3ccccc3Br)CC2)sc1C(=O)c1c(F)cccc1F [Example O4] | CDK2 % Inhibition At 0.03 μM (CDK2/Cyclin A; 0.03 μM compound, Table 2): 27%; CDK4 % Inhibition at 0.03 μM ([1]; 0.03 μM compound, Table 2): 10%; HCT-116 % Inhibition at 0.25 μM (HCT-116 cell line; HCT-116, Table 2): 4%
9.07 | 9.32 | 6.54 | 6.21 | CN(C)CCN(C)c1ncc(S(=O)(=O)N2CCC(Nc3nc(N)c(C(=O)c4c(F)cccc4F)s3)CC2)cc1Br [Example G24, 1-[4-Amino-2-(1-{5-bromo-6-[(2-dimethylamino-ethyl)-methyl-amino]-pyridine-3-sulfonyl}-piperidin-4-ylamino)-thiazol-5-yl]-1-(2,6-difluoro-phenyl)-methanone] | –
9.31 | 8.92 | 6.55 | < 6.30 | Nc1nc(NC2CCN(S(=O)(=O)c3ccc(N4CCCC(O)C4)nc3)CC2)sc1C(=O)c1c(F)cccc1F (stereo not shown) [Example G12, 1-{4-Amino-2-[1-(3-hydroxy-3,4,5,6-tetrahydro-2H-[1,2′]bipyridinyl-5′-sulfonyl)-piperidin-4-ylamino]-thiazol-5-yl}-1-(2,6-difluoro-phenyl)-methanone Trifluoroacetic Acid Salt] | –
– | – | – | – | COc1ccc(O)c(C(=O)N2CCC(Nc3nc(N)c(C(=O)c4c(F)cccc4F)s3)CC2)c1 [Example R121] | CDK2 % Inhibition at 0.03 μM (CDK2/Cyclin A; at 0.03 μM): 57%; CDK4 % Inhibition at 0.03 μM ([1]; at 0.03 μM): 60%; HCT-116 % Inhibition at 0.1 μM (HCT-116 cell line; HCT-116 cells, at 0.1 μM): 0%; HCT-116 5 Inhibition at 0.25 μM (HCT-116 cell line; HCT-116 cells): 37
7.82 | 8.66 | 6.55 | 6.19 | CN(C)CCS(=O)(=O)N1CCC(Nc2nc(N)c(C(=O)c3c(F)cccc3F)s2)CC1 [Example F26, {4-Amino-2-[1-(2-dimethylamino-ethanesulfonyl)-piperidin-4-ylamino]-thiazol-5-yl}-(2,6-difluoro-phenyl)-methanone] | –
– | – | – | – | CCc1ccc(C(=O)N2CCC(Nc3nc(N)c(C(=O)c4c(F)cccc4F)s3)CC2)cc1 [Example R157] | CDK2 % Inhibition at 0.03 μM (CDK2/Cyclin A; at 0.03 μM): 22%; CDK4 % Inhibition at 0.03 μM ([1]; at 0.03 μM): 47%; HCT-116 % Inhibition at 0.1 μM (HCT-116 cell line; HCT-116 cells, at 0.1 μM): 0%; HCT-116 5 Inhibition at 0.25 μM (HCT-116 cell line; HCT-116 cells): 42
> 8.30 | 8.72 | 5.89 | 5.40 | Cn1cnc(S(=O)(=O)N2CCC(Nc3nc(N)c(C(=O)c4c(F)cccc4F)s3)CC2)c1 [Example F2, 1-{4-Amino-2-[1-(i-methyl-1H-imidazole-4-sulfonyl)-piperidin-4-ylamino]-thiazol-5-yl}-1-(2,6-difluoro-phenyl)-methanone] | –
